According to paper PMC10709327, “A class of secreted mammalian peptides with potential to expand cell-cell communication” (Nature Communications, 2023):
Values joined by “and” are separate entries in the source; they are usually repeats but may differ in a detail not shown here. Equal entries are not always repeated. Where a SMILES comes first, the peptide text is derived from it. [ ]: non-standard residue; d: D form. pGlu = O=C1CC[C@@H](C(=O)O)N1

Columns and labels:
[1] = tested on: diet-induced obese male mice; assay: Metabolic chamber studies after a single dose (food intake, RER, movement, VO2, VCO2); assay type: in vivo, mouse; details: single dose 50 mg/kg intraperitoneal
Experimental: Fig. 5 Functional studies of […] in feeding and energy balance in mice. a Schematic of the primary amino acid sequence for full-length mouse GDF15 preproprotein and annotation of CAP-GDF15 sequence as well as the canonical GDF15 hormone sequence. b–d Food intake (b), respiratory exchange ratio (RER, c), and ambulatory activity (d) of 12–16-week diet-induced obese male mice following a single treatment of CAP-GDF15 (50 mg/kg, intraperitoneal) or vehicle control. e–g Food intake (e), RER (f), and ambulatory activity (g) of 12–16-week diet-induced obese male mice following a single treatment of scrambled CAP-GDF15 (50 mg/kg, intraperitoneal, scrambled sequence: pGlu-[…]-NH2) or vehicle control. h, i 3-day food intake (h) and body weight (i) of 12–16-week diet-induced obese male mice following treatment with CAP-GDF15 or scrambled CAP-GDF15 (50 mg/kg/day, IP), or vehicle control. […] For (b-i), p values were calculated by two-way ANOVA. Source data are provided as a Source Data file.
Animal experiments were performed according to a procedure approved by the Stanford University Administrative Panel on Laboratory Animal Care. Mice were maintained in 12-h light-dark cycles at 22 °C and about 50% relative humidity and fed a standard irradiated rodent diet. Where indicated, a high-fat diet (D12492, Research Diets 60% kcal from fat) was used. Male C57BL/6 J (stock number 000664) and male C57BL/6 J DIO mice were purchased from the Jackson Laboratory (stock number 380050). For studies in high-fat diet-fed mice, peptides were dissolved in 18:1:1 (by volume) of saline:Kolliphor EL (Sigma Aldrich):DMSO and administered to mice by intraperitoneal injections at a volume of 10 µl/g at the indicated doses for the indicated times. For lipopolysacchardide injection, LPS (Sigma, #L2880-10MG) was dissolved in saline and administered to mice at a volume of 5 µl/g at indicated dose. For fasting, food was removed from mice for 16 h. For running, a six-lane Columbus Instruments animal treadmill (product 1055-SRM-D65) was used with following 1 h protocol: 10 min at 6 m/min, 50 min at 18 m/min, and increase every 2 min by 2 m/min for the last 10 minutes, all at 12° incline. For all treatment experiments, mice were mock injected with the vehicle for 3–5 days until body weights were stabilized. Heparin plasma was harvested by submandibular bleed. For all experiments, mice were randomly assigned to treatment groups. Experimenters were not blinded to groups.
For acute energy expenditure studies, food intake, RER, movement, VO2, and VCO2 were collected with CLAMS Oxymax Metabolic Cages. Mice were placed in individual metabolic cages for 24 hours prior to experiment. Mice were injected with either vehicle, 50 mg/kg CAP-GDF15, 50 mg/kg uncapped CAP-GDF15, or 50 mg/kg scrambled CAP-GDF15 at 5 pm at T = 0. […] All experiments were done with 3–5 month old DIO mice (Jackson, stock 380050), fed high-fat diet ad libitum.
(§1) Supplementary Figure 5. Additional measurements from metabolic chambers of mice treated with CAP-GDF15. a CAP-GDF15 plasma concentration after administration of CAP-GDF15 (50 mg/kg, intraperitoneal) or vehicle control. b-c VO2 (b) and VCO2 (c) of 12-16-week diet-induced obese male mice following a single treatment of CAP-GDF15 (50 mg/kg, intraperitoneal) or vehicle control. d-e VO2 (d) and VCO2 (e) of 12-16-week diet-induced obese male mice following a single treatment of scrambled CAP-GDF15 (50 mg/kg, intraperitoneal, scrambled sequence: p[…]-NH2) or vehicle control. f Acute food intake of 12-16-week diet-induced obese male mice following a single treatment of CAP-GDF15 (50 mg/kg, intraperitoneal), uncapped CAP-GDF15 (50 mg/kg, intraperitoneal), or vehicle control. For (a), N=3/group; (b-c), N=12/group; for (d-e), N=8/group; for (f), N=5/group.
(§2) For (a-f), injection occurred at time T=0 (5:00pm). Data are shown as means ± SEM. For (b-i), p values were calculated by two-way ANOVA. Source data are provided as a Source Data

[2] = CAP-GDF15 plasma concentration after administration; assay type: in vivo, mouse; details: for Plasma concentration after administration (Supplementary Figure 5a): 50 mg/kg, unit not given
Experimental: To test this possibility, we administered a single dose of CAP-GDF15 (50 mg/kg, intraperitoneally) to diet-induced obese mice and measured whole body parameters of energy balance in metabolic chambers. At this dose, concentrations of plasma CAP-GDF15 rose by 5-fold from baseline at 30 min post-administration (Supplementary Fig. 5A). […] A corresponding and expected suppression of respiratory exchange ratio (RER) was also observed (Fig. 5c).
as §1, §2

[3] = diet-induced obese male mice, N = 12/group

- rise of plasma CAP-GDF15 concentration from baseline ([2]; 50 mg/kg intraperitoneal, 30 min post-administration, N = 3/group): ~ 5 fold and 5 fold
- Plasma concentration after administration (Supplementary Figure 5a) ([2]; 0 minutes (same values as vehicle), animal 1): 2.565
- Plasma concentration after administration (Supplementary Figure 5a) ([2]; 0 minutes (same values as vehicle), animal 2): 0.7876
- Plasma concentration after administration (Supplementary Figure 5a) ([2]; 0 minutes (same values as vehicle), animal 3): 0.4564
- Plasma concentration after administration (Supplementary Figure 5a) ([2]; 10 minutes, animal 1): 3.639
- Plasma concentration after administration (Supplementary Figure 5a) ([2]; 10 minutes, animal 2): 4.514
- Plasma concentration after administration (Supplementary Figure 5a) ([2]; 10 minutes, animal 3): 3.221
- Plasma concentration after administration (Supplementary Figure 5a) ([2]; 30 minutes, animal 1): 2.641
- Plasma concentration after administration (Supplementary Figure 5a) ([2]; 30 minutes, animal 2): 3.3984
- Plasma concentration after administration (Supplementary Figure 5a) ([2]; 30 minutes, animal 3): 2.342
- Plasma concentration after administration (Supplementary Figure 5a) ([2]; 60 minutes, animal 1): 0.6432
- Plasma concentration after administration (Supplementary Figure 5a) ([2]; 60 minutes, animal 2): 0.7838
- Plasma concentration after administration (Supplementary Figure 5a) ([2]; 60 minutes, animal 3): 0.7186
- Cmax ([2]; mouse, plasma, ip, 50 mg/kg intraperitoneal, from approximately 1 nM endogenous level, read-out: maximum plasma concentration after dosing, as read from the figure by a reviewer): 4 nM
SMILES: CC(C)C[C@H](NC(=O)[C@@H]1CCC(=O)N1)C(=O)N[C@@H](CCC(=O)O)C(=O)N[C@@H](CC(C)C)C(=O)N[C@@H](CCCNC(=N)N)C(=O)N[C@@H](CC(C)C)C(=O)N[C@@H](CCCNC(=N)N)C(=O)N[C@H](C(=O)N[C@@H](C)C(=O)N[C@@H](C)C(=O)NCC(=O)N[C@@H](CCCNC(=N)N)C(N)=O)C(C)C [CAP-GDF15] ([pGlu]LELRLRVAAGR-NH2)
- suppression of food intake compared to vehicle-treated mice ([1]; 12–16-week diet-induced obese male mice, 16 h after injection, N = 12 mice/group): ~ 60%
- effect on carbon dioxide production (VCO2) [1, 3]: did not alter
- effect on oxygen consumption (VO2) [1, 3]: did not alter
- effect on movement (ambulatory activity) ([1]; diet-induced obese male mice, N = 12 mice/group): did not alter
- effect on respiratory exchange ratio (RER) ([1]; diet-induced obese male mice, metabolic chambers): suppression
